Positions count from the first letter of the chain named.

Assay in all cases: scanMAX kinase panel
Common to all, as to format: binding
What all share (settings): read-out: % Control; for remaining binding at 1 µM: 1000 nM

The target in one assay is T1, FLT3(D835V) (Homo sapiens, UniProt P36888, D835V).
T1 construct: purchased DiscoverX scanMAX
T1 sequence (P36888 27-993 D835V): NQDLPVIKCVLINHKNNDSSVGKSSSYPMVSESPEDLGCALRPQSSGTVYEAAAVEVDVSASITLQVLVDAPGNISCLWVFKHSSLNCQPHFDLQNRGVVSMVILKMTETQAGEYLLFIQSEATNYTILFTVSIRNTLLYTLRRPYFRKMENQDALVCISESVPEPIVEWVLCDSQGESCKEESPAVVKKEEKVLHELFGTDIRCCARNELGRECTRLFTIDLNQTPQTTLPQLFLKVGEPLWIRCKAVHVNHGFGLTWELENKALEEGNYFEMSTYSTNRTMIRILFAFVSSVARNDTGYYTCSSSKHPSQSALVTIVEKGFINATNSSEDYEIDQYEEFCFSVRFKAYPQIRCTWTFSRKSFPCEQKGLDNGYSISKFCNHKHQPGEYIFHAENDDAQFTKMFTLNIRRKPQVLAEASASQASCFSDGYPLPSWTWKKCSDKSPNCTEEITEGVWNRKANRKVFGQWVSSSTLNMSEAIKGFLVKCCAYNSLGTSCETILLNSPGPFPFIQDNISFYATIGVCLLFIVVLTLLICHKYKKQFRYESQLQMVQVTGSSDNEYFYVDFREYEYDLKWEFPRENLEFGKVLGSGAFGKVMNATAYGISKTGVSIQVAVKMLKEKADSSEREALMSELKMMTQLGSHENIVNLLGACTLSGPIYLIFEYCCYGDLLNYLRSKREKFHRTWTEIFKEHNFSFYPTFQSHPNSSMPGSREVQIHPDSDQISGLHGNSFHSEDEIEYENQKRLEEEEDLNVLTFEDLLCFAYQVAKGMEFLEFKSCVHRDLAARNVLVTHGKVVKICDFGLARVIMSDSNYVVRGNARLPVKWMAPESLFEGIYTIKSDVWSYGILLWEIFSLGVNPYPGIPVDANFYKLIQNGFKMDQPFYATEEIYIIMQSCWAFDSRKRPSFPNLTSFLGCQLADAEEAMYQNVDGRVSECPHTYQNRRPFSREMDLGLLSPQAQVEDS
The text has this:
(§1) Supplemental Table S2. scanMAXSM Kinome Assay Results. Complete tabulated data of all 468 kinases from the panel, including
(§2) 403 wild-type and 65 mutant isoforms. […] Cmpd 11 and Cmpd 24

Another assay concerns the target T2, FLT3(N841I) (Homo sapiens, UniProt P36888, N841I).
T2 construct: purchased DiscoverX scanMAX
T2 sequence (P36888 27-993 N841I): T1 sequence (P36888 27-993 D835V) with V809D, N815I
Excerpt: as §1, §2

A further assay addresses T3, PIK3C2B (Homo sapiens, UniProt O00750).
T3 construct: purchased DiscoverX scanMAX
Excerpt: as §1, §2

For the next assay, the target named is T4, PIK4CB (Homo sapiens, UniProt Q9UBF8).
T4 construct: purchased DiscoverX scanMAX
Excerpt: as §1, §2

T3 sequence (O00750 whole entry): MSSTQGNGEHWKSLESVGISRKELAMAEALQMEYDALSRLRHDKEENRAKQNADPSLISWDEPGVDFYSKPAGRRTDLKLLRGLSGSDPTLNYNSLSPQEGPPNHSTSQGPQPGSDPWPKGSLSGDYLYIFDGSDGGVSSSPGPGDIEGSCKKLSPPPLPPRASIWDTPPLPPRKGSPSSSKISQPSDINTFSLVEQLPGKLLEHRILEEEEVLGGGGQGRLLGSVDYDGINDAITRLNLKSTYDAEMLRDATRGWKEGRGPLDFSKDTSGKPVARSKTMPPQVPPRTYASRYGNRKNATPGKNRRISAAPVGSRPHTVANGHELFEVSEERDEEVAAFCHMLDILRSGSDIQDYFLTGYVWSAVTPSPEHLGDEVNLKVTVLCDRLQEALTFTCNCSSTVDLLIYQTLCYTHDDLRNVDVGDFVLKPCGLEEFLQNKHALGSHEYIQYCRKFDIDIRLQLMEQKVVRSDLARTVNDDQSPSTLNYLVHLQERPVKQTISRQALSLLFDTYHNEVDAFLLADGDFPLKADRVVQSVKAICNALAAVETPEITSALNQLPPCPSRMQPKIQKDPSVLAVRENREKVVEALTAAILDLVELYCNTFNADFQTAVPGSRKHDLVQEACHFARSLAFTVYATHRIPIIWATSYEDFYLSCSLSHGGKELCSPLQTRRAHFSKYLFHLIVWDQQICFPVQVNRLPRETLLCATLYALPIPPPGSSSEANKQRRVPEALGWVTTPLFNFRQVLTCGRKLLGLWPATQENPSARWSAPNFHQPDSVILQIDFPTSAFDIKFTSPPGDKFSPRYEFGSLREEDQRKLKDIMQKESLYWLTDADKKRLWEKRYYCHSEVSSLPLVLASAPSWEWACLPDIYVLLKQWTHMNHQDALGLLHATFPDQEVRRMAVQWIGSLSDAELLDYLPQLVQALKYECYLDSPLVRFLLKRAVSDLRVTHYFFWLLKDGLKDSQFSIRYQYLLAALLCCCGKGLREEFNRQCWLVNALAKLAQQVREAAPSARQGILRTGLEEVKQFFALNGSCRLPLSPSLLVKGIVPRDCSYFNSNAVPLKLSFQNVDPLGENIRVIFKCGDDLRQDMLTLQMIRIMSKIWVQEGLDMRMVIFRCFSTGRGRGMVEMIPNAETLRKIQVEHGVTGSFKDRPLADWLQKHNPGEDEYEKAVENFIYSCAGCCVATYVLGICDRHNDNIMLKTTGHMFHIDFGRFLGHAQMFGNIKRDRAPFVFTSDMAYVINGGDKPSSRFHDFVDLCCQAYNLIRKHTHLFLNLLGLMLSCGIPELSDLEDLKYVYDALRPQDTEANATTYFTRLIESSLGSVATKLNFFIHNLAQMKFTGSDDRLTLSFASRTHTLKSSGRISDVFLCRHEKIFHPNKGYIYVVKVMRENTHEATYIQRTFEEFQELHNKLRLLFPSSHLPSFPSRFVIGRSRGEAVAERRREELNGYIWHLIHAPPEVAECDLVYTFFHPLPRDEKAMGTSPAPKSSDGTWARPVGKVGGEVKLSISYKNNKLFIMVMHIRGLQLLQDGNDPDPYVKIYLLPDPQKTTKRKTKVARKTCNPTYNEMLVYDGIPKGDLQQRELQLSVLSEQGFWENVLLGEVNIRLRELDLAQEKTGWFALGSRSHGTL
T4 sequence (Q9UBF8 whole entry): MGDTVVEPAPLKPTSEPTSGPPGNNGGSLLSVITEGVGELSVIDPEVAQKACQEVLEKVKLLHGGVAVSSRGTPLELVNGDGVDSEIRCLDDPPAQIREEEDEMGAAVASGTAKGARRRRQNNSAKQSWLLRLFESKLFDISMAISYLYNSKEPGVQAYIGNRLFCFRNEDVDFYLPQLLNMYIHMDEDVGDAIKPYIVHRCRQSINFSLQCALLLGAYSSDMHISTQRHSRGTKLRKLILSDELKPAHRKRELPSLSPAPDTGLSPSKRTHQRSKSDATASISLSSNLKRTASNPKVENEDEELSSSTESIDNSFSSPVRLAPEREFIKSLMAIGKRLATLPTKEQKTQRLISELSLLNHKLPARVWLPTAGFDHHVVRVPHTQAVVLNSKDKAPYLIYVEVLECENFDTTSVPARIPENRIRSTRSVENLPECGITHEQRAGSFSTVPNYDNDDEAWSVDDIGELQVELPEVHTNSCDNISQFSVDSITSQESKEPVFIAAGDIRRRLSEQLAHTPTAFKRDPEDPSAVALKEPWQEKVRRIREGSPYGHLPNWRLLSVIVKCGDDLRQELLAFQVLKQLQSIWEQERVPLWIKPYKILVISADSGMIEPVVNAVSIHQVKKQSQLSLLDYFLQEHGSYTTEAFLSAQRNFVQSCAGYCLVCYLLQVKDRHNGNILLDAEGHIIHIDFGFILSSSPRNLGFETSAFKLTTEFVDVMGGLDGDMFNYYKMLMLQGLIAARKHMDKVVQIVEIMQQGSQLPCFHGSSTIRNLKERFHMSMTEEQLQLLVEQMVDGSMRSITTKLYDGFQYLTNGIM

With `Cc1cc(NC(=O)[C@H](O)c2cccc(F)c2)ccc1-c1cn(C)c2ncnc(N)c12` [Compound 11, (R)-N-(4-(4-amino-7-methyl-7H-pyrrolo[2,3-d]pyrimidin-5-yl)-3-methylphenyl)-2-(3-fluorophenyl)-2-hydroxy acetamide], the remaining binding at 1 µM at FLT3(D835V) was 52%; on FLT3(N841I), 0.3%; on PIK3C2B it was 27%; at PIK4CB it was 84%.

As to `Cc1nc(N)c2c(-c3ccc(NC(=O)[C@H](O)c4cccc(F)c4)cc3C)cn(C)c2n1` [Compound 24], the remaining binding at 1 µM on FLT3(D835V) was found to be 100%; on FLT3(N841I), 100%; on PIK3C2B it was 100%; on PIK4CB it was 28%.

With `Cc1nc(N)c2c(-c3ccc(NC(=O)[C@H](O)c4cccc(C(F)(F)F)c4)cc3C)cn(C)c2n1` [Compound 26], the remaining binding at 0.1 µM on FLT3(D835V) (100 nM) was found to be 100%; at FLT3(N841I) (100 nM), 34%; at PIK3C2B (100 nM), 100%; at PIK4CB (100 nM) it was 93%. Also, the remaining binding at 1 µM at FLT3(D835V) was 8.5%; on FLT3(N841I) it was 0%; at PIK3C2B, 78%; at PIK4CB it was 4.3%.
